Experimental data as given in US4469701A, “Pyrrolid-3-en-2-ones and pharmaceutical methods of use thereof” (Stauffer Chemical Company, priority 1983, dated 1984).
Like-named read-outs stand apart in the source and are kept apart here.

How the values were obtained:
[1] = test system: hypercholesterolemic mice; assay: Hypocholesterolemic: serum cholesterol in hypercholesterolemic mice; assay type: in vivo, mouse; settings: Mus musculus, hypercholesterolemic mice; for inhibition in vivo at 200 mg/kg: 2 oral doses of 200 mg/kg 20 hr. apart, significance >20, read-out: C = Hypocholesterolemic: percent decrease in serum cholesterol
Experimental: Mice made hypercholesterolemic by being fed a high cholesterol-cholic acid diet for 7 days were dosed on the sixth and seventh days, p.o. After fasting overnight, reduction in serum cholesterol concentration by more than 15% (>15) from hypercholesterolemic control mice indicates activity.
^4 C = Hypocholesterolemic. Percent decrease in serum cholesterol in
hypercholesterolemic mice given 2 oral doses of 200 mg/kg drug candidate

mice [2] = assay: Central anticholinergic: oxotremorine tremors in mice; settings: Mus musculus, ip, 1 h, read-out: ED-100, central anticholinergic
mice [3] = assay: Antiarrhythmic: chloroform-induced cardiac arrhythmia in mice; assay type: in vivo, mouse; settings: for ED100: Mus musculus, ip, read-out: ED-100, antiarrhythmic; for A = Antiarrythmic: mouse hearts fibrillating (of 3): 15 min. after a 200 mg/kg intraperitoneal dose, significance <2
Experimental: ^2 A = Antiarrythmic. Less than 2/3 mouse hearts fibrillating 15 min.

mice [4] = assay: Acute toxicity / autonomic effects observation; settings: mouse, in vivo
Experimental: Mice were dosed at 300 mg/kg, per oral (p.o.) and […], interperitoneal (i.p.) for observation of any acute toxic symptoms or autonomic effects during the subsequent 72 hours. If none were noted, pharmacological evaluation proceeded employing doses and concentrations for each test based on appropriate multiples of doses required by suitable reference compounds. If acute toxicity was observed initially, the minimal toxic dose was determined and pharmacological screening doses were reduced proportionately.

[5] = test system: spontaneously hypertensive rats (SHR); assay: Antihypertensive: blood pressure (tail cuff) in spontaneously hypertensive rats (SHR); assay type: in vivo, rat; settings: for inhibition in vivo at 100 mg/kg / ED100: Rattus norvegicus; for inhibition in vivo at 100 mg/kg: 6 hr. after a 100 mg/kg oral dose, significance >10, read-out: Antihypertensive: percent decrease in systolic blood pressure in spontaneously hypertensive rats; for ED100: po, read-out: ED-100, antihypertensive
Experimental: Blood pressure was measured indirectly (tail cuff) in unanesthetized, unheated spontaneously hypertensive rats (SHR) before and 2, 4, and 6 hours after p.o. dosing. Reduction in mean pressure by more than 10% (>10) at any two consecutive measurement times after dosing indicates antihypertensive activity.

rats [6] = assay: Bradycardia: heart rate by EKG in rats; assay type: in vivo, rat; settings: for inhibition in vivo at 5 mg/kg / ED100: Rattus norvegicus; for inhibition in vivo at 5 mg/kg: 0.75 h, 45 min. after a 5 mg/kg oral dose in rats, significance >10, read-out: B = Bradycardiac: percent decrease in heart rate; for ED100: po, rats, reference compounds, read-out: ED-100, bradycardia
Experimental: […] Decrease in heart rate by more than 10% (>10) is considered a bradycardic effect.
Percent decrease in heart rate 45 min. after a 5
mg/kg oral dose in rats.

rats [7] = assay: Antiulcer: stress induced gastric ulcers in rats; assay type: in vivo, rat; settings: for inhibition in vivo at 50 mg/kg / ED100: Rattus norvegicus; for inhibition in vivo at 50 mg/kg: 4 hr. following a 50 mg/kg oral dose in rats, significance >60, read-out: U = Antiulcerative: percent inhibition of stress ulcers; for Antiulcer effect, in words: rat, in vivo; for ED100: po, read-out: ED-100, antiulcer
Experimental: Fasted rats were dosed, p.o., 30 minutes before immobilization in wire mesh and partial immersion in water for 4 hours. Inhibition of the resulting stress induced gastric ulcers by more than 60% (>60) indicates activity.
^6 U = Antiulcerative. Percent inhibition of stress ulcers 4 hr.
following a 50 mg/kg oral dose in rats.

rats [8] = assay: Antiedema: carrageenan paw edema in rats; assay type: in vivo; settings: Rattus norvegicus, po, 3 h, read-out: ED-100, antiedema
Experimental: Rats are dosed p.o. one hour before intraplantar injection of carrigeenan (0.1 ml, 1% susp.). Inhibition of paw edema by more than 30% (>30) 3 hours after carriegeenan injection indicates acute anti-edema activity.

glucose-loaded mice = assay: Hypoglycemic, glucose-loaded mice; assay type: in vivo, mouse; settings: glucose loaded mice, 100 mg/kg oral dose; significance >20
Experimental: Reduction in blood glucose concentration by more than 20% (>20) in fasted, glucose-loaded (1 gm/kg) mice one hour after dosing, p.o., indicates activity (test compound administered at same time as glucose load).
^5 H = Hypoglycemic. Percent decrease in serum glucose concentration
in glucose loaded mice hr. following a 100 mg/kg oral dose.

CCOC(=O)C(C)(C)Oc1ccc(Cl)cc1 [clofibrate, reference compound]
ED100 ([1]; po, reference compounds, read-out: ED-100, hypocholesterolemic): 400 mg/kg

CNCCCN1c2ccccc2CCc2ccccc21 [desipramine]
ED100 (mice [2]): > 25 mg/kg

CC(C)NCC(O)COc1cccc2[nH]ccc12 (stereo not shown) [pindolol, reference compound]
ED100 (mice [3]): 50 mg/kg

CC1(C)CCCC(C)(C)N1CC1=CC(=O)N(c2ccc(F)cc2)C1 [Compound 5]
Autonomic effect / autonomic inhibition (mice [4]): absence of evidence of autonomic inhibition | inhibition in vivo at 100 mg/kg [5]: 26% | Dose with borderline antihypertensive result ([5]; p.o.): 5 mg/kg | inhibition in vivo at 5 mg/kg (rats [6]): 24% | A = Antiarrythmic: mouse hearts fibrillating (of 3) (mice [3]): 0 | Antiarrhythmic effect, in words (mice [3]; mouse, in vivo): noted at antihypertensive doses | inhibition in vivo at 200 mg/kg [1]: 0% | inhibition in vivo at 50 mg/kg (rats [7]): 75% | Antiulcer effect, in words (rats [7]): noted at antihypertensive doses

CC(=O)Oc1ccccc1C(=O)O [aspirin]
ED100 (rats [8]): 150 mg/kg

N=C(N)NN=Cc1c(Cl)cccc1Cl [quanabenz, reference compound]
ED100 [5]: < 6 mg/kg | ED100 (rats [6]): 2.5 mg/kg

N[C@@H]1C[C@H]1c1ccccc1 (relative stereo) [tranylcypromine]
ED100 (mice [2]): > 25 mg/kg

COc1ccc2c(c1)c(CC(=O)O)c(C)n2C(=O)c1ccc(Cl)cc1 [indomethacin]
ED100 (rats [8]): 4 mg/kg

COc1ccc([C@@H]2Sc3ccccc3N(CCN(C)C)C(=O)[C@@H]2OC(C)=O)cc1 [diltiazem, reference compound]
ED100 (rats [6]): 10 mg/kg | ED100 (mice [3]; mice, reference compounds): 50 mg/kg

COc1cc2nc(N3CCN(C(=O)c4ccco4)CC3)nc(N)c2cc1OC [prazosin, reference compound]
ED100 ([5]; SHR, reference compounds): 1 mg/kg

NNc1nncc2ccccc12 [hydralazine, reference compound]
ED100 [5]: 2.5 mg/kg

CC1(C)[C@@H](OC(=O)CCC(=O)O)CC[C@]2(C)[C@H]3C(=O)C=C4[C@@H]5C[C@@](C)(C(=O)O)CC[C@]5(C)CC[C@@]4(C)[C@]3(C)CC[C@@H]12 [carbenoxolone, reference compound]
ED100 (rats [7]; rats, reference compounds): > 100 mg/kg

COC(=O)C1=C(C)NC(C)=C(C(=O)OC)C1c1ccccc1[N+](=O)[O-] [nifedipine, reference compound]
ED100 ([5]; SHR, reference compounds): 50 mg/kg | ED100 (mice [3]; mice, reference compounds): 25 mg/kg

COc1ccc(CCN(C)CCCC(C#N)(c2ccc(OC)c(OC)c2)C(C)C)cc1OC (stereo not shown) [verapamil, reference compound]
ED100 (mice [3]): 50 mg/kg

COC(=O)[C@H]1[C@H]2C[C@@H]3c4[nH]c5cc(OC)ccc5c4CCN3C[C@H]2C[C@@H](OC(=O)c2cc(OC)c(OC)c(OC)c2)[C@@H]1OC [reserpine, reference compound]
ED100 ([5]; SHR, reference compounds): 25 mg/kg | ED100 (rats [6]): 5 mg/kg

CCN(CC)CC(=O)Nc1c(C)cccc1C [lidocaine, reference compound]
ED100 (mice [3]): 50 mg/kg

C=CC1CN2CCC1CC2C(O)c1ccnc2ccc(OC)cc12 (stereo not shown) [qunidine, reference compound]
ED100 (mice [3]): 100 mg/kg

CCN(CC)CCOC(=O)c1ccc(N)cc1 [procaine, reference compound]
ED100 (mice [3]): 100 mg/kg

CC(C)NCC(O)COc1cccc2ccccc12 (stereo not shown) [propranolol, reference compound]
ED100 (rats [6]): 40 mg/kg | ED100 (mice [3]): 40 mg/kg

CS(=O)(=O)c1ccc(-c2cn3ccccc3n2)cc1 [zolimidine, reference compound]
ED100 (rats [7]; rats, reference compounds): > 100 mg/kg

CC1(C)CCCC(C)(C)N1CC1=CC(=O)N(c2cccc([N+](=O)[O-])c2)C1 [Compound 11]
Autonomic effect / autonomic inhibition (mice [4]): absence | inhibition in vivo at 100 mg/kg [5]: 27% | Antihypertensive activity, onset / comparison in words ([5]; p.o.): Mild, rather slow onset | inhibition in vivo at 5 mg/kg (rats [6]): 5% | Bradycardic effects, in words (rats [6]; rat, in vivo): absence of bradycardia | A = Antiarrythmic: mouse hearts fibrillating (of 3) (mice [3]): 3 | inhibition in vivo at 200 mg/kg [1]: 0% | inhibition in vivo at 50 mg/kg (rats [7]): 25%

Cc1cccc(C)c1OCC(C)N (stereo not shown) [mexilitine, reference compound]
ED100 (mice [3]; mice, reference compounds): 50 mg/kg

O=C(CCCN1CCC(O)(c2ccc(Cl)cc2)CC1)c1ccc(F)cc1 [haloperidol]
ED100 (mice [2]): 10 mg/kg

Clc1cccc(Cl)c1N=C1NCCN1 [clonidine, reference compound]
ED100 [5]: < 5 mg/kg | ED100 (rats [6]): 0.5 mg/kg

CNC1=Nc2ccc(Cl)cc2C(c2ccccc2)=[N+]([O-])C1 [chlordiazepoxide, reference compound]
ED100 (rats [7]): 100 mg/kg

CC1(C)CCCC(C)(C)N1CC1=CC(=O)N(c2cccc(SC(F)(F)F)c2)C1 [Compound 2, N-[3'-trifluoromethylthiophenyl]-4-[2",2",6",6"tetramethylpiperidino]methylpyrrolid-3-en-2-one]
Acute toxicity / toxic effects (mice [4]): apparent absence | Autonomic effect / autonomic inhibition (mice [4]): apparent absence of autonomic effect | inhibition in vivo at 100 mg/kg [5]: 14% | inhibition in vivo at 5 mg/kg (rats [6]): 6% | A = Antiarrythmic: mouse hearts fibrillating (of 3) (mice [3]): 3 | inhibition in vivo at 200 mg/kg [1]: 0% | inhibition in vivo at 50 mg/kg (rats [7]): 38%

C[C@](N)(Cc1ccc(O)c(O)c1)C(=O)O [methyldopa, reference compound]
ED100 ([5]; SHR, reference compounds): 50 mg/kg

CC1(C)CCCC(C)(C)N1CC1=CC(=O)N(c2cc(C(F)(F)F)cc(C(F)(F)F)c2)C1 [Compound 3]
Autonomic effect / autonomic inhibition (mice [4]): No evidence of autonomic inhibition | inhibition in vivo at 100 mg/kg [5]: 32% | Antihypertensive activity, duration ([5]; p.o.): perhaps of long duration | Antihypertensive activity, onset / comparison in words ([5]; p.o.): somewhat slow in onset | Dose with borderline antihypertensive result ([5]; p.o.): 10 mg/kg | inhibition in vivo at 5 mg/kg (rats [6]): 14% | A = Antiarrythmic: mouse hearts fibrillating (of 3) (mice [3]): 3 | inhibition in vivo at 200 mg/kg [1]: 0% | inhibition in vivo at 50 mg/kg (rats [7]): 38%

CC1(C)CCCC(C)(C)N1CC1=CC(=O)N(c2cccc(Br)c2)C1 [Compound 14]
inhibition in vivo at 100 mg/kg [5]: 4% | inhibition in vivo at 5 mg/kg (rats [6]): 0% | A = Antiarrythmic: mouse hearts fibrillating (of 3) (mice [3]): 3 | inhibition in vivo at 200 mg/kg [1]: 5% | inhibition in vivo at 50 mg/kg (rats [7]): 50% | Antiulcer effect, in words (rats [7]): activity appears to be weaker than with Compound 13

CN(C)CCCN1c2ccccc2CCc2ccccc21 [imipramine]
ED100 (mice [2]): 25 mg/kg

CCN(CC)CCNC(=O)c1cc(Cl)c(N)cc1OC [metoclopramide]
ED100 (mice [2]): > 100 mg/kg

CSc1ccc2c(c1)N(CCC1CCCCN1C)c1ccccc1S2 (stereo not shown) [thioridazine]
ED100 (mice [2]): 10 mg/kg

CC(CCc1ccccc1)NCC(O)c1ccc(O)c(C(N)=O)c1 (stereo not shown) [labetalol, reference compound]
ED100 ([5]; SHR, reference compounds): 50 mg/kg

CN(C)CCCN1c2ccccc2Sc2ccc(Cl)cc21 [chlorpromazine, reference compound]
ED100 (rats [7]): 20 mg/kg | ED100 (mice [2]): 2.5 mg/kg

CC(C)N(CCC(C(N)=O)(c1ccccc1)c1ccccn1)C(C)C (stereo not shown) [disopyramide, reference compound]
ED100 (mice [3]; mice, reference compounds): 50 mg/kg

C[C@H](CS)C(=O)N1CCC[C@H]1C(=O)O [captopril, reference compound]
ED100 ([5]; SHR, reference compounds): 100 mg/kg

NC(=S)Cc1ccccn1 [pyridyl-2-thioacetamide, reference compound]
ED-100, antiulcer (rats [7]; p.o., rats, reference compounds): 50 mg/kg

CCN1CCCC1CNC(=O)c1cc(S(N)(=O)=O)ccc1OC (stereo not shown) [sulpiride]
ED100 (mice [2]): > 100 mg/kg

Cc1ccc(N(CC2=NCCN2)c2cccc(O)c2)cc1 [phentolamine, reference compound]
ED100 ([5]; SHR, reference compounds): 25 mg/kg

CCn1c2c(c3ccccc31)CCSC2(C)CCN(C)C (stereo not shown) [tandamine]
ED100 (mice [2]): > 50 mg/kg

CC1(C)CCCC(C)(C)N1CC1=CC(=O)N(c2ccccc2)C1 [Compound 6]
Autonomic effect / autonomic inhibition (mice [4]): little evidence of autonomic effect | inhibition in vivo at 100 mg/kg [5]: 18% | inhibition in vivo at 5 mg/kg (rats [6]): 20% | A = Antiarrythmic: mouse hearts fibrillating (of 3) (mice [3]): 3 | inhibition in vivo at 200 mg/kg [1]: 12% | H = Hypoglycemic: percent decrease in serum glucose concentration (glucose-loaded mice): 29% | inhibition in vivo at 50 mg/kg (rats [7]): 75%
